Experimental data taken from patent US20050119324A1, “Methods of treating atherosclerosis using NF-kB inhibitors” (Wyeth, priority 2003, published 2005).

What was measured:
[1] = test system: apolipoprotein E-deficient C57/B1J (apo E KO) mice; test: Aortic atherosclerosis quantification (Oil Red O, en face, aortic arch) in ovariectomized apoE KO mice on a high fat diet; assay type: in vivo; details: atherogenic diet 6 weeks, oral dosing in feed, EE 12 μg/kg/d, Examples 3 or 5 at 10 or 25 mg/kg/d, N=12
Procedure: All animal procedures were performed under strict compliance to IACUC guidelines. Four to six-week old female apolipoprotein E-deficient C57/B1J (apo E KO) mice were ovariectomized by the vendor (Taconic) and delivered to Wyeth within 2 days of surgery. The animals were housed in shoe-box cages and were allowed ad lib food and water. After 3 days acclimation, the animals were randomized by weight into 8 groups (N=12 mice per group). The animals were dosed in the feed with the indicated compounds during the entire course of the study. Dosing at the indicated levels was achieved by blending the compounds with a sucrose vehicle (30 g per 2 kg feed) prior to mixing into the feed. Ethinyl estradiol was used as a positive reference compound and was dosed at 12 μg/kg/d. […] The quantity of compound added to the feed was based on the food consumption rate and the body weights of the animals, which was determined every week. […]
Aortic Atherosclerosis Quantification-The mice were euthanized by anesthesia overdose and the vascular tree was perfused first with 2 ml phosphate buffered saline (pH 7.4), then with 2 ml formalin. For quantification of aortic lesions, aortas were carefully isolated and placed in formalin fixative for 48-72 hours before handling. […] The lesions were quantified en face after staining along the aortic arch using the Image-Pro Plus, Media Cybernetics software. […]

[2] = Lipoprotein determinations (total cholesterol, VLDL, HDL by FPLC) in ovariectomized apoE KO mice on a high fat diet; assay type: in vivo; details: atherogenic diet 6 weeks, oral dosing in feed
Procedure: All animal procedures were performed under strict compliance to IACUC guidelines. Four to six-week old female apolipoprotein E-deficient C57/B1J (apo E KO) mice were ovariectomized by the vendor (Taconic) and delivered to Wyeth within 2 days of surgery. The animals were housed in shoe-box cages and were allowed ad lib food and water. After 3 days acclimation, the animals were randomized by weight into 8 groups (N=12 mice per group). The animals were dosed in the feed with the indicated compounds during the entire course of the study. Dosing at the indicated levels was achieved by blending the compounds with a sucrose vehicle (30 g per 2 kg feed) prior to mixing into the feed. Ethinyl estradiol was used as a positive reference compound and was dosed at 12 μg/kg/d. Other groups of animals were dosed with the compounds of Example 3 or Example 5 at either 10 or 25 mg/kg/d. Control animals received vehicle (sucrose) alone in the feed. The quantity of compound added to the feed was based on the food consumption rate and the body weights of the animals, which was determined every week. The feeders employed prevented any spillage, so that the food consumption rate was accurate. The animals were fed a Casein-based rodent chow meal (Purina #5K96M) for the first week of the study. The animals were then challenged with a casein-based high fat (HF) diet for week 2 to week 7 of the study. The HF diet (#591-A) was prepared by Purina and contained 1.5% cholesterol, 20% fat as cocoa butter and contained no cholic acid. At the end of the study period, the animals were euthanized and plasma samples obtained. The aortas were perfused via the left ventricle first with buffered saline and then with neutral buffered 10% formalin solution.
Lipoprotein Determinations—Total cholesterol and triglycerides were determined using enzymatic methods with commercially available kits from Boehringer Mannheim and Wako Biochemicals, respectively, and analyzed with the Boehringer Mannheim Hitachii 911 Analyzer. Separation and quantitation of plasma lipoproteins were performed using FPLC size fractionation. Briefly, 50-100 μl serum was filtered and injected into Superose 12 and Superose 6 columns connected in series and eluted at a constant flow rate using 0.15 M NaCl. Areas of each curve representing VLDL, LDL and HDL were integrated using Waters Millennium™ software, and each lipoprotein fraction was quantified by multiplying the Total Cholesterol value by the relative percent area of each respective chromatogram peak.

SMILES | extent of aortic fatty streak involvement [1] | VLDL-C (FIG. 2) [2] | serum HDL-C (FIG. 2) [2] | serum total cholesterol (FIG. 2) [2] | melting point
COc1ccccc1[C@H](c1cccc2ccccc12)[C@@](C)(C#N)C(=O)N1CCC(c2cccc(C(F)(F)F)c2)CC1 [Example 5, (S,S)-3-(2-methoxyphenyl)-2-methyl-3-(1-naphthyl)-2-({4-[3-(trifluoromethyl)phenyl]piperidin-1-yl}carbonyl)propanenitrile] | significant decrease | increase | significantly lower | no effect | –
CC1c2cc(F)ccc2-c2ccccc2N1S(=O)(=O)c1ccc(O)cc1 (stereo not shown) [Example 3, 4-[(8-Fluoro-6-methylphenanthridin-5(6H)-yl)sulfonyl]phenol] | significant decrease | increase | significantly lower | no effect | 188 °C
COc1cc(OC)cc(N2CCN(C(=O)[C@](C)(C#N)[C@H](c3ccccc3OC)c3cccc4ccccc34)CC2)c1 [Example 4, (S)-3-[4-(3,5-dimethoxyphenyl)piperazin-1-yl]-2-[(S)-(2-methoxyphenyl)(1-naphthyl)methyl]-2-methyl-3-oxopropanenitrile] | – | – | – | – | 186 to 188 °C
